In patent US11760717B2, “Resin composition and fluidity improvement method” (Osaka Gas Chemicals Co., Ltd., priority 2020, dated 2023):

Tests used:
[1] = Visual confirmation of extruded thread shaped sample (compatibility of resin and additive); assay type: physicochemical; details: thread shaped sample extruded from the resin composition, visually confirmed
Protocol: When a thread shaped sample obtained by extruding the resin composition was visually confirmed, the resin and the additive were compatible with each other without becoming cloudy in each of samples.
For each of Examples, the PA66 as a resin and AAD-FL as an additive were kneaded at a ratio shown in Table 3 to prepare a resin composition. Kneading was performed using a twin-screw extruder (manufactured by Parker Corporation, “HK25D”, L/D=41, screw diameter: 25 mm) under the conditions of a temperature of 270° C., a screw rotation speed of 150 rpm, and a discharge amount of 6 kg/hour. When a thread shaped sample obtained by extruding the resin composition was visually confirmed, the resin and the additive were compatible with each other without becoming cloudy in each of samples in Examples 4 to 6, as in Example 3.

[2] = 5% mass reduction temperature (TG-DTA); assay type: physicochemical; details: nitrogen atmosphere, 50 to 400° C., heating rate 10° C./min
Protocol: (5% Mass Reduction Temperature)
The temperature, at which the mass of the sample is reduced by 5% by mass, was measured using a Thermogravimeter-Differential Thermal Analyzer (TG-DTA) (manufactured by PerkinElmer, Inc., “TGA-4000”) in a nitrogen atmosphere, under the condition of a measurement temperature range of 50 to 400° C. with a heating rate of 10° C./min.

Structure (SMILES)	compatibility of resin and additive [1]	5% mass reduction temperature [2]
NC(=O)CCC1(CCC(N)=O)c2ccccc2-c2ccccc21 [AAD-FL, 9,9-bis(2-carbamoylethyl)fluorene]	compatible with the resin	320 °C
CN(C)C(=O)CCC1(CCC(=O)N(C)C)c2ccccc2-c2ccccc21 [DMAA-FL, 9,9-bis[2-(N,N-dimethylcarbamoyl)ethyl]fluorene]		318 °C
CCN(CC)C(=O)CCC1(CCC(=O)N(CC)CC)c2ccccc2-c2ccccc21 [DEAA-FL, 9,9-bis[2-(N,N-diethylcarbamoyl)ethyl]fluorene]		294 °C
CC(C)NC(=O)CCC1(CCC(=O)NC(C)C)c2ccccc2-c2ccccc21 [NIPAM-FL, 9,9-bis[2-(N-isopropylcarbamoyl)ethyl]fluorene]		257 °C
